The structures appear in SMILES notation. Marks after values point to notes of the source that are not given here.

The test system of data set [1] is human ovarian tumour cell line A2780. Put plainly: growth (tetrazolium dye-based microtitration) cytotoxicity assay, A2780. In kind it is cell-based. Conditions: for IC50: Homo sapiens, A2780, cisplatin-sensitive line, 24 hours drug exposure, 3 day recovery, mean±SEM of triplicate plates. Here is the method:
(§1) Compounds were tested in a growth assay with a 24 hours drug exposure and a 3 day recovery period. Cell lines used were human ovarian tumour cell line A2780 and 2 Cisplatin resistant derivatives cell lines A27080/cp70 and MCP1. IC50 is the concentration of drug required to reduce the surviving cell number to 50% of that of the control untreated cells. Results are from one experiment and are the mean±SEM of the triplicate plates.
(§2) DIP cytotoxicity was determined by a tetrazolium dye-based microtitration assay. DNA affinity measurements of DIPs were undertaken using Isothermal Titration Calorimetry (ITC).

In data set [2] the test system is Cisplatin resistant cell line A2780/cp70. The data set is described as follows: growth (tetrazolium dye-based microtitration) cytotoxicity assay, A2780/cp70. It counts as cell-based, human. Conditions: for IC50: Homo sapiens, A2780/CP70, cisplatin-resistant line, 24 hours drug exposure, 3 day recovery, mean±SEM of triplicate plates; for RF1: rapport of the IC50 between A2780 and A2780/cp70, the lower RF the better. Here is the method:
as §1, §2

Data set [3] deals with Cisplatin resistant cell line MCP1. Put plainly: growth (tetrazolium dye-based microtitration) cytotoxicity assay, MCP1. It counts as cell-based, human. Conditions: for IC50: Homo sapiens, cisplatin-resistant line, 24 hours drug exposure, 3 day recovery, mean±SEM of triplicate plates; for RF2: rapport of the IC50 between A2780 and MCP1, the lower RF the better. Here is the method:
as §1, §2

Data set [4] concerns Salmon DNA. The data set is described as follows: DNA affinity by Isothermal Titration Calorimetry (ITC), Salmon DNA. It counts as binding. Also on record: key to Ka Salmon DNA: *^1: No measurable binding via ITC. How it is done: as §2
Data set [5] has as its system Calf DNA. Put plainly: DNA affinity by Isothermal Titration Calorimetry (ITC), Calf DNA. It counts as binding. Also on record: key: *^1: No measurable binding via ITC. How it is done: as §2
Data set [6] concerns DNA. The data set is described as follows: Viscosimetry analysis (DNA intercalation). Conditions: preliminary result.

For `CC(C)N1CC[n+]2c1c1ccccc1c1ccccc12.[Br-]`, the melting point (as a rule, the temperature of the solid-liquid transition) was 250 to 251 °C (dec.).
Still for that read-out and setting: as for `COc1ccc(CSCC[n+]2cc3ccccc3c3ccccc32)cc1.[Br-]`, the figure is 182 to 183 °C.
Consider `c1ccc2c(c1)c1[n+](c3ccccc23)CCN1` [AP5-94, 2,3-Dihydro-1H-imidazo[1,2-f]phenanthridin-4-ylium bromide], for which, in data set [1], the “cytotoxicity on cisplatin-sensitive cell line A2780 (in words)” value is reported as “high cytotoxicity” and the IC50 (in general, the point on the concentration scale where inhibition reaches its midpoint) is 1.56 ± 0.18 µM. In data set [2], the “less active on A2780/cp70 than on A2780” value is 50%, 2.3 ± 0.15 µM corresponded to half-maximal inhibition (IC50) and the RF1 turned out to be 1.5. Moreover, in data set [3], the “more active on MCP1 than A2780” value is on record as 50%, inhibition was half-maximal at 0.82 ± 0.09 µM (IC50) and the RF2 is 0.5. Also, the “Ka Salmon DNA” value in data set [4] was 2.56 ± 802.6 M^−1 (10^4). In addition, the “Ka Calf DNA” value in data set [5] is listed as 2.06 ± 907 M^−1 (10^4). The “viscosity of DNA (in words)” value in data set [6] was “increase of viscosity similar to the one obtained with the DNA intercalator reference ethidium bromide”.
In turn, `[Br-].[Br-].c1ccc2c(c1)c[n+](CCN1CCN(CC[n+]3cc4ccccc4c4ccccc43)CC1)c1ccccc21` yielded a melting point of 260 to 261 °C.
Take `OCCN1CC[n+]2c1c1ccccc1c1ccccc12.[Br-]` [AP6-5]: the IC50 in data set [1] amounted to 11.7 ± 1.2 µM. In data set [2], this molecule registered an IC50 of 13.7 ± 1.5 µM and an RF1 of 1.2. In data set [3], this molecule returned an IC50 of 7.8 ± 1.47 µM and an RF2 of 0.7. For the same molecule, in data set [4], the “Ka Salmon DNA” value is listed as 1.84 ± 660 M^−1 (10^4). In addition, the “Ka Calf DNA” value in data set [5] was 1.53 ± 838.9 M^−1 (10^4).
As to `[Br-].c1ccc2c(c1)c[n+](CCN1CCCCC1)c1ccccc21`, the melting point lay within 167 to 168 °C.
As to `COC(=O)[C@H](Cc1ccccc1)N1CC[n+]2c1c1ccccc1c1ccccc12.[Br-]` [AP8-56], the “cytotoxicity on cisplatin-sensitive cell line A2780 (in words)” value in data set [1] is listed as “moderate cytotoxicity”. Moreover, the results for the IC50 in data set [1], in data set [2] and in data set [3] were 35.8 ± 4.2 µM, 21.6 ± 1.8 µM and 20 ± 1.2 µM, respectively. In addition, the “cytotoxicity (in words)” value in data set [1] (overall statement across A2780, A2780/cp70 and MCP1) is “moderate activity”. The “Ka Salmon DNA” value in data set [4] was “*^1”. Besides, in data set [4] (DNA source not given), the “DNA affinity (in words)” value is listed as “does not have any measurable binding property”. The “Ka Calf DNA” value in data set [5] was “*^1”.
`C[C@H](CO)N1CC[n+]2c1c1ccccc1c1ccccc12.[Br-]` [LS1-52]: the IC50 amounted to 2.86 ± 0.37 µM in data set [1], 8.43 ± 0.37 µM in data set [2] and 4.77 ± 0.09 µM in data set [3]. In addition, the RF1 in data set [2] was 3. Further, in data set [3], the RF2 amounted to 1.7. Further, in data set [4], the “Ka Salmon DNA” value is on record as 1.73 ± 989.3 M^−1 (10^4). Further, the “Ka Calf DNA” value in data set [5] was 1.42 ± 785 M^−1 (10^4).

(Values after patent US7947703B2, “Phenanthridinium derivatives as DNA binding agents” (University Court of the University of Glasgow, priority 2003, dated 2011).)
